Measurements: PMC10674617, “Design, Synthesis, Evaluation and Molecular Dynamics Simulation of Dengue Virus NS5-RdRp Inhibitors” (Pharmaceuticals, 2023)
Where “and” joins values, the source holds several entries; their conditions need not be identical. Equal entries are not always repeated. Where two headings read alike, the source gives them in different places.

Experiments:
[1] = target: T1, DENV2 RdRp (Dengue virus type 2, UniProt P14340); test: DENV biochemical enzyme assay; conditions: mean ± SD of two individual experiments
T1 construct: 100 nM of DENV2 full-length NS5 enzyme
Procedure: The inhibitory activities of compounds SW-b and SW-d against DENV-2 RdRp were assessed using in vitro enzyme inhibition assays. Compounds 3′-dATP, BCX4430, and NITD008 were used as controls. […] This confirmed the reliability of the DENV2 RdRp inhibitory activity assay.
Additionally, it contained 20 μM ATP, 20 μM GTP, 20 μM UTP, 5 μM ATTO-CTP, and 100 nM of DENV2 full-length NS5 enzyme. These were all suspended in a solution consisting of 50 mM Tris/HCl at pH 7.5, 10 mM KCl, 1 mM MgCl2, 0.3 mM MnCl2, 0.001% Triton-X-100, and 10 μM cysteine. Five compounds, with concentrations ranging from 0 to 20 or 100 μM, were serially diluted 2-fold into 384-well white opaque plates (Corning Costar, New York, NY, USA), resulting in a final volume of 5 μL. Subsequently, 5 μL of the enzyme in a 1× assay buffer was added to their respective wells. The plate was incubated at room temperature for 15 min, after which 5 μL of a mixture containing RNA and NTPs was introduced to initiate the reactions. After a reaction time of 120 min, the process was terminated by adding 10 μL of a 2.5× STOP buffer, comprising 200 mM NaCl, 25 mM MgCl2, and 1.5 M DEA adjusted to pH 10 using […]. Additionally, 25 nM of calf intestinal alkaline phosphatase (NEB) was introduced. The mixture was allowed to incubate at room temperature for an additional 60 min. To quantify the results, a Tecan Saffire II microplate reader was employed, with excitation max and emission max wavelengths set at 422 nm and 566 nm, respectively. All data points were analyzed in duplicate wells. Finally, the IC50 values were determined using a nonlinear regression curve fit for a sigmoidal dose–response (variable slope) in GraphPad Prism version 3.02 (GraphPad Prism, Inc., San Diego, CA).

[2] = Cytotoxicity assay; assay type: cell-based; conditions: dog
[3] = tested on: DENV2 NGC strain; test: Cytopathic effect (CPE) inhibition assay; assay type: cell-based, Dengue virus (DENV2); conditions: for SI (Selectivity Index): ratio of CC50 to IC50; for IC50: BHK-21 cells, DENV2 NGC strain, mean ± SD of two individual experiments, read-out: DENV-NGC-IC50
Procedure: The antiviral activities of the nine synthesized compounds against DENV were assessed using the DENV2 NGC strain and BHK-21 cells via CPE inhibition assays. BCX4430, NITD008, and 27 were used as positive controls (Figure S2). […] The activity of compound SW-d was higher than that of BCX4430 and lower than that of NITD008; however, its SI was higher than those of BCX4430 and NITD008.
In cell-based antiviral assays, the DENV2 NGC strain (Sino Biological Inc., Beijing, China) and BHK-21 cells (Baby hamster kidney cell line; ATCC CCL10) were used. The viral stock was prepared by inoculating C6/36 cells (Aedes albopictus clone C6/36; ATCC CRL166) as described previously. […] The supernatant was cleared by centrifugation at 2000 g for 5 min to remove cell debris and adjusted to 20% FBS. Aliquots of the virus were stored at […]. The 50% tissue culture infective dose (TCID50) was determined using the Promega Viral ToxGlo assay (Fisher Scientific, Ottawa, ON, Canada) in BHK-21 cells, according to the manufacturer’s instructions. Cell-based assays for the evaluation of antiviral activity against DENV were performed as described previously with modifications, using the Viral ToxGlo assay (Fisher Scientific, Ottawa, ON, Canada) according to the manufacturer’s instructions. Briefly, BHK-21 cells were plated in 96-well plates at 2500 cells/well in Dulbecco’s modified Eagle’s medium (DMEM) containing 10% FBS and 1% penicillin-streptomycin. Cells were incubated at 37 °C overnight and infected with 100 TCID50 of DENV for 90 min. The medium was replaced with DMEM containing 2.5% FBS and varying concentrations of the test compounds. Cell cultures were maintained at 37 °C in a 5% CO2 incubator for 3 days. The Viral Tox reagent was freshly prepared, and 100 μL of the reagent was added to each well. The plates were incubated for at least 10 min and then quantified using a 1450 MicroBeta TriLux microplate scintillation and luminescence counter (PerkinElmer, Waltham, MA, USA). For the off-target cytotoxicity assay, the test compounds were processed as described above, except without DENV infection of the cells. The luminescence readings were plotted against the log transformation of the concentration of the compound. Data were analyzed by nonlinear regression using GraphPad Prism 5.0 software (GraphPad Software, San Diego, CA, USA).

[4] = tested on: DENV RdRp; design: method as in PMID 26984786, PMID 27500641; conditions: against all clinically relevant dengue virus serotypes; cited from earlier work
[5] = tested on: MDCK cells; test: Cytotoxicity assay; assay type: cell-based; conditions: cytotoxicity, MDCK cells
[6] = Dengue virus, DENV2, BHK-21, CPE inhibition

Row | Compound | CC50 at 3 days [2] | IC50 [3, 6] | also measured
1 | Nc1ncnc2c1ncn2[C@@H]1O[C@H](COP(=O)(O)OP(=O)(O)OP(=O)(O)O)C[C@H]1O [3′-dATP, reference compound] |  |  | IC50 [1]: 30.1 ± 8.26 µM
2 | Nc1ncnc2c([C@@H]3N[C@H](CO)[C@@H](O)[C@H]3O)c[nH]c12 [BCX4430, reference compound] | 100 µM |  | SI (Selectivity Index) [3]: 2.40
3 | COc1cc(C)c(C(=O)NS(=O)(=O)c2cccc3cccnc23)cc1-c1ccc(C#CCO)s1 [Compound 27, reference compound] |  | 19.7 ± 1.12 µM | IC50 [4]: 0.013 to 0.074 µM
4 | COc1cccc(S(=O)(=O)NC(=O)c2cc(-c3ccc(C#CCO)s3)c(OC)cc2OC)c1 [Compound 29] |  |  | IC50 [4]: 0.048 to 0.172 µM
5 | C#C[C@@]1(O)[C@H](O)[C@@H](CO)O[C@H]1n1ccc2c(N)ncnc21 [NITD008, reference compound] |  |  | CC50 [5]: 20 µM; IC50 ([3]; CPE inhibition): 41.6 µM and 15.5 µM
6 | COc1cccc(C(=O)NS(=O)(=O)c2cc(-c3ccc(C#CCO)s3)c(OC)cc2C)c1 [SW-a] |  | 57.6 ± 2.37 µM | 
7 | COc1cc(C)c(S(=O)(=O)NC(=O)C(C)Oc2ccc3c4c(c(=O)oc3c2)CCCC4)cc1-c1ccc(C#CCO)s1 (stereo not drawn) [SW-b] | 24.7 µM | 3.58 ± 0.29 µM | SI (Selectivity Index) [3]: 6.89; IC50 [1]: 11.5 ± 1.3 µM
8 | COc1cc(C)c(S(=O)(=O)NC(=O)c2ccc(-n3c(C)ccc3C)cc2)cc1-c1ccc(C#CCO)s1 [SW-c] | > 200 µM | 41.5 ± 1.37 µM | 
9 | COc1cc(C)c(S(=O)(=O)NC(=O)c2ccc(C)c(Nc3nc(C)nc4c3CCC4)c2)cc1-c1ccc(C#CCO)s1 [SW-d] | 134 µM | 23.9 ± 1 µM | SI (Selectivity Index) [3]: 5.58; IC50 [1]: 13.5 ± 0.32 µM
10 | COc1cc(C)c(S(=O)(=O)NC(=O)C2CC(=O)N(c3ccc(Cl)c(Cl)c3)C2)cc1-c1ccc(C#CCO)s1 (stereo not drawn) [SW-e] | 69.9 µM | > 200 µM | 
11 | COc1cc(C)c(S(=O)(=O)NC(=O)c2ccc3c(c2)C(=O)N(c2cccc(C)c2)C3=O)cc1-c1ccc(C#CCO)s1 [SW-f] | > 200 µM | 53.8 ± 4.53 µM | SI (Selectivity Index) [3]: >3.72
12 | COc1cc(C)c(S(=O)(=O)NC(=O)c2ccc(C)s2)cc1-c1ccc(C#CCO)s1 [SW-g] |  | > 200 µM | 
13 | COc1cc(C)c(S(=O)(=O)NC(=O)c2ccncn2)cc1-c1ccc(C#CCO)s1 [SW-h] |  | > 200 µM | 
14 | COc1cc(C)c(S(=O)(=O)NC(=O)Cn2nc(C)cc2C)cc1-c1ccc(C#CCO)s1 [SW-i] |  | > 200 µM | 
